{
  "source": "patent US20190000128A1",
  "about": "“INFANT FORMULA COMPRISING HUMAN MILK PEPTIDES” (THE A2 MILK COMPANY LIMITED, priority 2015, published 2019)",
  "test_system": "neuronal stem cell (NSC) cultures / foetal stem cells",
  "assay": "Neuronal stem cell neurogenesis, differentiation and proliferation by immunocytochemistry",
  "type": "cell-based",
  "details": "foetal stem cells treated with 1 μM; FIG. 3B",
  "procedure": "Previously isolated and frozen neuronal stem cell cultures were properly thawed, maintained and cultured. Cell suspensions were grown in a defined medium (DF12) composed of DMEM/F12 (1:1), 2 mM L-glutamine, 1 mM sodium pyruvate, antibiotics/antimycotics (Invitrogen, Grand Island, N.Y.), 0.6% glucose, 25 μg/ml insulin, 20 nM progesterone, 60 μM putrescine, 30 nM sodium selenite (all from Sigma, St. Louis, Mo.), 100 μg/ml human transferrin (Roche, Indianapolis, Ind.), 20 ng/ml human recombinant […] growth factor (EGF; Roche or Invitrogen, Chicago, Ill.) and basic fibroblast growth factor (bFGF; Upstate Biotechnology, Lake Placid, N.Y.). The cells grew as free-floating aggregates (neurospheres) and were passaged by mechanical dissociation every 3-4 d. […]\nTo identify proliferating cells, 100 μM BrdU, an analog of thymidine, was added 24 h before cell fixation. […] A primary monoclonal antibody against BrdU (1:20; Dakopatts) was added for 1 h at room temperature and detected using AlexaFluor 488-labelled goat anti-mouse IgG (H+L). […] Apoptotic cells were visualised with Hoechst 33342 (LifeTechnologies, Md.) as fragmented pycnotic blue-stained nuclei and counted under the fluorescence microscope (López-Toledano M.A. and Shelanski M.L., 2004 Neurogenic effect of beta-amyloid peptide in the development of neural stem cells. J Neurosci. 24(23):5439-44). […]",
  "data": [
    {"molecule": "CN1CC[C@]23c4c5ccc(O)c4O[C@H]2[C@@H](O)C=C[C@H]3[C@H]1C5", "note": "[morphine, Morphine]", "values": [
      {"measurement": "neuronal proliferation (image of magnified foetal stem cells)", "result": "extensive neuronal proliferation"}
    ]}
  ]
}
